In patent US11253516B2, “N2,N4-diphenylpyrimidine-2,4-diamine derivative, method for preparing same, and pharmaceutical composition containing same as active ingredient for prevention or treatment of cancer” (Korea Research Institute of Chemical Technology, priority 2017, dated 2022) one finds IC50 data, which are given here for 16 compounds.

Test [1] relates to Ba/F3 EGFR del19/T790M/C797S cell line. The test is described as follows: CellTiter-Glo cell viability, Ba/F3 EGFR del19/T790M/C797S. Type of test: cell-based. Conditions: read-out: Ba/F3 EGFR del19/T790M/C797S IC50. The protocol:
(§1) The measurement of an activity on wild-type and mutation Ba/F3 EGFR cell line of the compound of the present invention was experimented by utilizing the CellTiter-Glo system sold by Promega, as follow. The CellTiter-Glo assay is a method for measuring the ATP present in cells in cell culture conditions to determine the cell viability.
(§2) The analysis of an EGFR inhibitory ability effect of the compound was carried out in accordance with the analysis reaction recipe below.
(§3) After the reaction of 72 hours, the plate treated with the compound was allowed to stand for 30 minutes at ambient temperature, and then, was further treated with 100 μl of the reagent, and was shaked for 10 minutes at ambient temperature.

In test [2] the target is EGFR del19 (Homo sapiens (Human), UniProt P00533, DEL746-750). The test is described as follows: HTRF enzyme assay, EGFR del19. Type of test: biochemical. As to conditions: recombinant enzyme. Here is the method: (§4) The measurement of an activity on wild-type and EGFR mutation enzyme of the compound of the present invention was experimented by utilizing the HTRF system sold by Cisbio, as follow.
EGFR del19, sequence (P00533 other isoform, or with tags, fused parts or gaps del 1-668/del 746-750 limits assumed): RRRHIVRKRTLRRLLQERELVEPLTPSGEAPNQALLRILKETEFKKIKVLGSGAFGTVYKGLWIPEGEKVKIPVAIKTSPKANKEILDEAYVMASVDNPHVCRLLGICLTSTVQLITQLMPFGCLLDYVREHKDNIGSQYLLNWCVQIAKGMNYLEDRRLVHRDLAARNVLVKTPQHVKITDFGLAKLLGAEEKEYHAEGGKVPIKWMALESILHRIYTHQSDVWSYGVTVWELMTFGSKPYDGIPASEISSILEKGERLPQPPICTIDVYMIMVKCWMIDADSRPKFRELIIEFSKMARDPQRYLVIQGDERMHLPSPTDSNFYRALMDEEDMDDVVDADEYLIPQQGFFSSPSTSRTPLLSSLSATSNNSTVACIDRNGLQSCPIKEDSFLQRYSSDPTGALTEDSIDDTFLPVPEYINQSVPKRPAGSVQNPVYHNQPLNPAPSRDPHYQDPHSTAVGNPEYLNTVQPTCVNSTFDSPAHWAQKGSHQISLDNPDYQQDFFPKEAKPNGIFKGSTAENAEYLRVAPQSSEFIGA
(§5) The composition of the assay buffer used in the activity measurement was 50 mM Tris-HCl pH 7.5, 100 mM NaCl, 7.5 mM MgCl2, 3 mM KCl, 0.01% Tween 20, 0.1% BSA, 1 mM DTT. The enzymatic reaction was carried out hereto by using the peptide substrate labeled with ATP of […] concentration and biotin of […] concentration. The analysis of an EGFR activity inhibitory effect of the compound was carried out in accordance with the analysis reaction recipe below.
(§6) Component 1: […] of EGFR wild-type or mutation enzyme
(§7) Component 2: […] of compound solution
(§8) Component 3: […] of peptide labeled with ATP and biotin
(§9) The enzymatic reaction was initiated by mixing Component 1 and Component 2 first, and then, adding component 3. After the reaction for 2 hours at 37° C., […] of a measurement solution consisting of streptavidin-XL665 provided by Cisbio and anti-phosphotyrosine antibody labeled with europium was added to the enzymatic reaction solution and reacted for 1 hour at ambient temperature. […] The measurement values measured at the seven concentrations of the compound were analyzed by using the Prism program (version 5.01, Graphpad Software, Inc.), and IC50 value of the compound was calculated, which is an inhibitory ability indicator.
(In TR-FRET formats the signal depends on donor and acceptor labels being close together.)

For test [3], the system named is Ba/F3 EGFR del19 cell line. In words: CellTiter-Glo cell viability, Ba/F3 EGFR del19. As to conditions: 72 hours. Type of test: cell-based. Here is the method: as §1, §2
(§10) After the reaction of 72 hours, the plate treated with the compound was allowed to stand for 30 minutes at ambient temperature, and then, was further treated with 100 μl of the reagent, and was shaked for 10 minutes at ambient temperature. […] The measurement values measured at the eight concentrations of the compound were analyzed by using the Prism program (version 5.01, Graphpad Software, Inc.), and IC50 value of the compound was calculated, which is an inhibitory ability indicator.

For test [4], the target named is EGFR wt. (Homo sapiens (Human), UniProt P00533). The test is described as follows: HTRF enzyme assay, wild-type EGFR. Type of test: biochemical. As to conditions: recombinant enzyme. The protocol: as §4, §5, §6, §7, §8, §9
EGFR wt., sequence (P00533 25-1210): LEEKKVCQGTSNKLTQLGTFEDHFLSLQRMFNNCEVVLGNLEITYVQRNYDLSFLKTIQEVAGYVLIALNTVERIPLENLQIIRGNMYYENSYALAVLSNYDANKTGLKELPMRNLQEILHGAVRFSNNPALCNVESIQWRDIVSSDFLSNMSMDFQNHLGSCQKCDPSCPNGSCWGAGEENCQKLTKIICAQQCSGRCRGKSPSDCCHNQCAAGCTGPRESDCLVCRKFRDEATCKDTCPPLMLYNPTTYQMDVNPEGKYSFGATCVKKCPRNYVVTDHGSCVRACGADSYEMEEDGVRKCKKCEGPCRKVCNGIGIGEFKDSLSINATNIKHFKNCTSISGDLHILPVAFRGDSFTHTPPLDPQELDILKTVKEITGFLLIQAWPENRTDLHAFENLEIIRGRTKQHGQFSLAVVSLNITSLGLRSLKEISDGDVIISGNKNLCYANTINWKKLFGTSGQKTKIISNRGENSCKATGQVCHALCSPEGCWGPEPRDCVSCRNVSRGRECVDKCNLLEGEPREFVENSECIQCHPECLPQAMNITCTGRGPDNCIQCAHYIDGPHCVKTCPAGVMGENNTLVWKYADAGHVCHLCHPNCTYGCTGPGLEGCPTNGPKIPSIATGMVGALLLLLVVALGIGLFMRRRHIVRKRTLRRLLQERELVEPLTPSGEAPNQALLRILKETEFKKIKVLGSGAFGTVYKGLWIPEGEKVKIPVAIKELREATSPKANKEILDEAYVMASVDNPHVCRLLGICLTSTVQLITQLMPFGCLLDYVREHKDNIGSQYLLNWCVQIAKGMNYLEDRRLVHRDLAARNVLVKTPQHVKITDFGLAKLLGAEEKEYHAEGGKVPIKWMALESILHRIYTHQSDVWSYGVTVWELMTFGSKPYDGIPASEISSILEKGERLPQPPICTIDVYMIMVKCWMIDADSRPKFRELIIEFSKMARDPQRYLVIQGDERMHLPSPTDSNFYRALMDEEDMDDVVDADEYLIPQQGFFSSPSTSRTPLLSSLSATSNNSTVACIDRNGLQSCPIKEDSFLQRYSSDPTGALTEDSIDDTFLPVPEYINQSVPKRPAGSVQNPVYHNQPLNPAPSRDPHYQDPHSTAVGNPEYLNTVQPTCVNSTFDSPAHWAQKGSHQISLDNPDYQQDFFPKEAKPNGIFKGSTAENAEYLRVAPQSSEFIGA
Test [5] deals with EGFR del19/T790M (Homo sapiens (Human), UniProt P00533, DEL746-750/T790M). The test is described as follows: HTRF enzyme assay, EGFR del19/T790M. In kind it is biochemical. Conditions: recombinant enzyme. The protocol:
as §4, §5, §6, §7, §8, §9

The target of test [6] is EGFR del19/T790M/C797S (Homo sapiens, UniProt P00533, C797S/DEL746-750/T790M). In words: HTRF enzyme assay, EGFR del19/T790M/C797S. In kind it is biochemical. Here is the method: as §4, §5, §6, §7, §8, §9
EGFR del19/T790M/C797S, sequence (P00533 with tags, fused parts or gaps C797S/DEL746-750/T790M limits assumed): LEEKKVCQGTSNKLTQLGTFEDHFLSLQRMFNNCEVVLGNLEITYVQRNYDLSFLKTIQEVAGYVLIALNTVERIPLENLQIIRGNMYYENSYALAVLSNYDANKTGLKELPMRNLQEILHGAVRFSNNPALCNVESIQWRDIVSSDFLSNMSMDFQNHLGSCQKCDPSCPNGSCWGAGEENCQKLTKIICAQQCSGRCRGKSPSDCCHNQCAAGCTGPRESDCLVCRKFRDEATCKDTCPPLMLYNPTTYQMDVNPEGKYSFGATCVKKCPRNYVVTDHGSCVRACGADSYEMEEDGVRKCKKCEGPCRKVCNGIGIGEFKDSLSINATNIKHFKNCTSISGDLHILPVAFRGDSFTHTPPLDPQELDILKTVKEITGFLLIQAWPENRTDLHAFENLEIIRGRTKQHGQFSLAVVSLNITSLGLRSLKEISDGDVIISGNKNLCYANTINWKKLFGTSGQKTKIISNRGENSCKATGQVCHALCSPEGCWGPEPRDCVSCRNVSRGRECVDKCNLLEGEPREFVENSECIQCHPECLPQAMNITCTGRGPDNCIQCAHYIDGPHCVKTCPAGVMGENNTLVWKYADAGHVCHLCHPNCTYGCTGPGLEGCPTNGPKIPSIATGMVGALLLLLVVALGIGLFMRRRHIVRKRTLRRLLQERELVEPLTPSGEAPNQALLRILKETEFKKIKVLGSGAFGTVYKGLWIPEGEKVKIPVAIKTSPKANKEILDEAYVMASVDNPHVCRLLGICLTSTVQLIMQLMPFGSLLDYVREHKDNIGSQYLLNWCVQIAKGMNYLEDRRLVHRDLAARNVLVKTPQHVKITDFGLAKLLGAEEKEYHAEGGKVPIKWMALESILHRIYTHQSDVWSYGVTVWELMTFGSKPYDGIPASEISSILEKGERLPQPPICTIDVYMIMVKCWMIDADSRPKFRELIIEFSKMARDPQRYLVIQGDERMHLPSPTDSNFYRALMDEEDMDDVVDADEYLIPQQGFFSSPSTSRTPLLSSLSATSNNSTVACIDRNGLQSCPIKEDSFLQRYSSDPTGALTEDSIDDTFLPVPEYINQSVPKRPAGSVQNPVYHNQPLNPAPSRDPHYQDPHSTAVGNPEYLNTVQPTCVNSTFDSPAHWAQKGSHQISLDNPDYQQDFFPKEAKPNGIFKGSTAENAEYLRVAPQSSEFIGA
For test [7], the system named is Ba/F3 EGFR wt. cell line. The test is described as follows: CellTiter-Glo cell viability, Ba/F3 EGFR wild-type. In kind it is cell-based. Conditions: 72 hours. The protocol: as §1, §2, §10
In general terms: In ATP-based viability assays light output follows the ATP content of the culture.

Test [8] has as its system Ba/F3 EGFR del19/T790M cell line. The test is described as follows: CellTiter-Glo cell viability, Ba/F3 EGFR del19/T790M. In kind it is cell-based. Conditions: read-out: Ba/F3 EGFR del19/T790M IC50. The protocol: as §1, §2, §3
Setting [9] is: HTRF, recombinant enzyme, read-out: EGFR del19/T790M/C797S IC50.

Like-named read-outs stand apart in the source and are kept apart here. Some results are limits rather than exact numbers.

EGFR del19/T790M, sequence (P00533 other isoform, or with tags, fused parts or gaps T790M/del 1-668/del 746-750 limits assumed): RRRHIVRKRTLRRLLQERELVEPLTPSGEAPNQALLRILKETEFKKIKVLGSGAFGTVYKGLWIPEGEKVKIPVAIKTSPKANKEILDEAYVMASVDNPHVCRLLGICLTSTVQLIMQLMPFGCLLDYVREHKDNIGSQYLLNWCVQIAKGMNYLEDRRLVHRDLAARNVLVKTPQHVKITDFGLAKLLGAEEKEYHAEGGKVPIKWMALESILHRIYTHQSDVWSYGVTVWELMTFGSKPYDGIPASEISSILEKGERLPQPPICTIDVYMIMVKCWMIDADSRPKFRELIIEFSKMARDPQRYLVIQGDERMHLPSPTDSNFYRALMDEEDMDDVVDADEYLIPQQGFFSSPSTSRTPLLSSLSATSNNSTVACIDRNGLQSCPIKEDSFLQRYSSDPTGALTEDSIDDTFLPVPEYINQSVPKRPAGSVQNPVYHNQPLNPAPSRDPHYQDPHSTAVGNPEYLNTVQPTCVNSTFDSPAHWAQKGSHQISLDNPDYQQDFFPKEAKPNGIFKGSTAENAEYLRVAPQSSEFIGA

`CNC1CCN(c2ccc(Nc3ncc(Cl)c(Nc4ccccc4NS(C)(=O)=O)n3)c(OC)c2)CC1` [Example 40, N-(2-((5-chloro-2-((2-methoxy-4-(4-(methylamino)piperidin-1-yl)phenyl)amino)pyrimidin-4-yl)amino)phenyl)methanesulfonamide]: the IC50 in test [1] (CellTiter-Glo, 72 hours) was found to be 500 nM.
For `COc1cc(C2CCN(C3CCN(C)CC3)CC2)ccc1Nc1ncc(Cl)c(Nc2ccccc2NS(C)(=O)=O)n1` [Example 17, N-(2-((5-chloro-2-((2-methoxy-4-(1′-methyl-[1,4′-bipiperidin]-4-yl)phenyl)amino)pyrimidin-4-yl)amino)phenyl)methanesulfonamide], the IC50 came out at 4 nM in test [2]; 2200 nM in test [3]; 600 nM in test [4]; 78 nM in test [5]; 680 nM in test [1] (CellTiter-Glo, 72 hours); 12 nM in test [6] (setting [9]). Besides, the IC50 in test [7] is 2100 nM; in test [8] (CellTiter-Glo, 72 hours), 1700 nM.
Regarding `COc1cc(C2CCN(C)CC2)ccc1Nc1ncc(Cl)c(Nc2ccccc2NS(C)(=O)=O)n1` [Example 12, N-(2-((5-chloro-2-((2-methoxy-4-(1-methylpiperidin-4-yl)phenyl)amino)pyrimidin-4-yl)amino)phenyl)methanesulfonamide], the IC50 in test [2] was 22 nM; in test [3], 330 nM; in test [4], 1200 nM; in test [5], 130 nM; in test [1] (CellTiter-Glo, 72 hours) it was 80 nM; in test [6] (setting [9]) it was 2 nM. For the same compound, the IC50 in test [7] is 320 nM; in test [8] (CellTiter-Glo, 72 hours), 380 nM.
As to `COc1cc(N2CCC(N3CCOCC3)CC2)ccc1Nc1ncc(Cl)c(Nc2ccccc2NS(C)(=O)=O)n1` [Example 34, N-(2-((5-chloro-2-((2-methoxy-4-(4-morpholinopiperidin-1-yl)phenyl)amino)pyrimidin-4-yl)amino)phenyl)methanesulfonamide], the IC50 in test [1] (CellTiter-Glo, 72 hours) is 160 nM; in test [6] (setting [9]), below 1 nM.
For `COc1cc(N2CCC(N3CCNCC3)CC2)ccc1Nc1ncc(Cl)c(Nc2ccccc2NS(C)(=O)=O)n1` [Example 21, N-(2-((5-chloro-2-((2-methoxy-4-(4-(piperazin-1-yl)piperidin-1-yl)phenyl)amino)pyrimidin-4-yl)amino)phenyl)methanesulfonamide], the IC50 in test [2] is 0.1 nM; in test [3], 3600 nM; in test [4], 160 nM; in test [5] it was 14 nM; in test [1] (CellTiter-Glo, 72 hours), 1700 nM; in test [6] (setting [9]) it was 5 nM. In addition, the IC50 in test [7] stood at 2200 nM; in test [8] (CellTiter-Glo, 72 hours) it was 550 nM.
As to `COc1cc(N2CCOCC2)ccc1Nc1ncc(Cl)c(Nc2ccccc2NS(C)(=O)=O)n1` [Example 32, N-(2-((5-chloro-2-((2-methoxy-4-morpholinophenyl)amino)pyrimidin-4-yl)amino)phenyl)methanesulfonamide], the IC50 in test [2] turned out to be 4 nM; in test [3], 1900 nM; in test [4] it was 1300 nM; in test [5], 160 nM; in test [1] (CellTiter-Glo, 72 hours), 3300 nM; in test [6] (setting [9]) it was 14 nM. Besides, the IC50 in test [7] stood at 8000 nM; in test [8] (CellTiter-Glo, 72 hours) it was 1300 nM.
As for `COc1cc(C2CCN(C3CCNCC3)CC2)ccc1Nc1ncc(Cl)c(Nc2ccccc2NS(C)(=O)=O)n1` [Example 16, N-(2-((2-((4-([1,4′-bipiperidin]-4-yl)-2-methoxyphenyl)amino)-5-chloropyrimidin-4-yl)amino)phenyl)methanesulfonamide], the IC50 was 44 nM in test [2]; above 10000 nM in test [3]; 5400 nM in test [4]; 340 nM in test [5]; above 10000 nM in test [1] (CellTiter-Glo, 72 hours); 23 nM in test [6] (setting [9]). Also, the IC50 is above 10000 nM in test [7] and 2300 nM in test [8] (CellTiter-Glo, 72 hours).
As to `COc1cc(N2CCNCC2)ccc1Nc1ncc(Cl)c(Nc2ccccc2NS(C)(=O)=O)n1` [Example 23, N-(2-((5-chloro-2-((2-methoxy-4-(piperazin-1-yl)phenyl)amino)pyrimidin-4-yl)amino)phenyl)methanesulfonamide], the IC50 in test [2] was determined as 25 nM; in test [4], 2700 nM; in test [5] it was 32 nM; in test [6] (setting [9]) it was 29 nM.
As to `COc1cc(C2CCNCC2)ccc1Nc1ncc(Cl)c(Nc2ccccc2NS(C)(=O)=O)n1` [Example 1, N-(2-((5-chloro-2-((2-methoxy-4-(piperidin-4-yl)phenyl)amino)pyrimidin-4-yl)amino)phenyl)methanesulfonamide], the IC50 in test [3] is 6600 nM; in test [7], above 15000 nM; in test [8] (CellTiter-Glo, 72 hours) it was 7100 nM.
Turning to `COc1cc(N2CCC(N)CC2)ccc1Nc1ncc(Cl)c(Nc2ccccc2NS(C)(=O)=O)n1` [Example 38, N-(2-((2-((4-(4-aminopiperidin-1-yl)-2-methoxyphenyl)amino)-5-chloropyrimidin-4-yl)amino)phenyl)methanesulfonamide], in test [1] (CellTiter-Glo, 72 hours), the IC50 is 840 nM.
Regarding `COc1cc(N2CCNCC2)ccc1Nc1ncc(C(F)(F)F)c(Nc2ccccc2NS(C)(=O)=O)n1` [Example 31, N-(2-((2-((2-methoxy-4-(piperazin-4-yl)phenyl)amino)-5-(trifluoromethyl)pyrimidin-4-yl)amino)phenyl)methanesulfonamide], the IC50 in test [2] turned out to be 36 nM; in test [4], 580 nM; in test [5] it was 29 nM; in test [6] (setting [9]), 7 nM.
With `COc1cc(N2CCC(N3CCCC3)CC2)ccc1Nc1ncc(Cl)c(Nc2ccccc2NS(C)(=O)=O)n1` [Example 35, N-(2-((5-chloro-2-((2-methoxy-4-(4-(pyrrolidin-1-yl)piperidin-1-yl)phenyl)amino)pyrimidin-4-yl)amino)phenyl)methanesulfonamide], the IC50 is 1.1 nM in test [2]; 27 nM in test [4]; 8.3 nM in test [5]; 84 nM in test [1] (CellTiter-Glo, 72 hours); below 1 nM in test [6] (setting [9]).
As to `COc1cc(N2CCN(C3CCNCC3)CC2)ccc1Nc1ncc(Cl)c(Nc2ccccc2NS(C)(=O)=O)n1` [Example 27, N-(2-((5-chloro-2-((2-methoxy-4-(4-(piperidin-4-yl)piperazin-1-yl)phenyl)amino)pyrimidin-4-yl)amino)phenyl)methanesulfonamide], the IC50 is 0.3 nM in test [2]; 1100 nM in test [3]; 280 nM in test [4]; 21 nM in test [5]; above 10000 nM in test [1] (CellTiter-Glo, 72 hours); 1 nM in test [6] (setting [9]). Further, in test [8] (CellTiter-Glo, 72 hours), the IC50 was 940 nM.
As to `COc1cc(N2CCC(N(C)C)CC2)ccc1Nc1ncc(Cl)c(Nc2ccccc2NS(N)(=O)=O)n1` [Example 36], the IC50 in test [1] (CellTiter-Glo, 72 hours) amounted to 930 nM.
Turning to `COc1cc(N2CCC(N3CCN(CCO)CC3)CC2)ccc1Nc1ncc(Cl)c(Nc2ccccc2NS(C)(=O)=O)n1` [Example 22, N-(2-((5-chloro-2-((4-(4-(4-(2-hydroxyethyl)piperazin-1-yl)piperidin-1-yl)-2-methoxyphenyl)amino)pyrimidin-4-yl)amino)phenyl)methanesulfonamide], the IC50 in test [2] is 0.4 nM; in test [3], 900 nM; in test [4] it was 260 nM; in test [5], 31 nM; in test [1] (72 h), 1300 nM; in test [6], 0.8 nM. Also, the IC50 in test [8] (72 h) came to 390 nM.
Take `COc1cc(N2CCC(N3C[C@@H](C)N[C@@H](C)C3)CC2)ccc1Nc1ncc(Cl)c(Nc2ccccc2NS(C)(=O)=O)n1` [Example 33, N-(2-((5-chloro-2-((4-(4-((3R,5S)-3,5-dimethylpiperazin-1-yl)piperidin-1-yl)-2-methoxyphenyl)amino)pyrimidin-4-yl)amino)phenyl)methanesulfonamide]: the IC50 was 120 nM in test [1] (CellTiter-Glo, 72 hours) and below 1 nM in test [6] (setting [9]).
